Measurements: ChEMBL document CHEMBL1255533, “PKI-179: an orally efficacious dual phosphatidylinositol-3-kinase (PI3K)/mammalian target of rapamycin (mTOR) inhibitor” (Bioorg Med Chem Lett, 2010)
The source made the active and inactive calls. The calls are words filed in the database; no cut-off is given here.

Key:
[1] = system: MDA-MB-361; assay: Antiproliferative activity against human MDA-MB-361 cells; assay type: functional, cell-based
[2] = system: PC-3; assay: Antiproliferative activity against human PC3 cells; assay type: functional, cell-based
[3] = target: Serine/threonine-protein kinase mTOR (Homo sapiens, UniProt P42345); assay: Inhibition of mTOR
[4] = target: Phosphatidylinositol 4,5-bisphosphate 3-kinase catalytic subunit alpha isoform (Homo sapiens, UniProt P42336); assay: Inhibition of PI3K-alpha
Phosphatidylinositol 4,5-bisphosphate 3-kinase catalytic subunit alpha isoform (Homo sapiens, UniProt P42336), sequence (P42336 whole entry, canonical isoform): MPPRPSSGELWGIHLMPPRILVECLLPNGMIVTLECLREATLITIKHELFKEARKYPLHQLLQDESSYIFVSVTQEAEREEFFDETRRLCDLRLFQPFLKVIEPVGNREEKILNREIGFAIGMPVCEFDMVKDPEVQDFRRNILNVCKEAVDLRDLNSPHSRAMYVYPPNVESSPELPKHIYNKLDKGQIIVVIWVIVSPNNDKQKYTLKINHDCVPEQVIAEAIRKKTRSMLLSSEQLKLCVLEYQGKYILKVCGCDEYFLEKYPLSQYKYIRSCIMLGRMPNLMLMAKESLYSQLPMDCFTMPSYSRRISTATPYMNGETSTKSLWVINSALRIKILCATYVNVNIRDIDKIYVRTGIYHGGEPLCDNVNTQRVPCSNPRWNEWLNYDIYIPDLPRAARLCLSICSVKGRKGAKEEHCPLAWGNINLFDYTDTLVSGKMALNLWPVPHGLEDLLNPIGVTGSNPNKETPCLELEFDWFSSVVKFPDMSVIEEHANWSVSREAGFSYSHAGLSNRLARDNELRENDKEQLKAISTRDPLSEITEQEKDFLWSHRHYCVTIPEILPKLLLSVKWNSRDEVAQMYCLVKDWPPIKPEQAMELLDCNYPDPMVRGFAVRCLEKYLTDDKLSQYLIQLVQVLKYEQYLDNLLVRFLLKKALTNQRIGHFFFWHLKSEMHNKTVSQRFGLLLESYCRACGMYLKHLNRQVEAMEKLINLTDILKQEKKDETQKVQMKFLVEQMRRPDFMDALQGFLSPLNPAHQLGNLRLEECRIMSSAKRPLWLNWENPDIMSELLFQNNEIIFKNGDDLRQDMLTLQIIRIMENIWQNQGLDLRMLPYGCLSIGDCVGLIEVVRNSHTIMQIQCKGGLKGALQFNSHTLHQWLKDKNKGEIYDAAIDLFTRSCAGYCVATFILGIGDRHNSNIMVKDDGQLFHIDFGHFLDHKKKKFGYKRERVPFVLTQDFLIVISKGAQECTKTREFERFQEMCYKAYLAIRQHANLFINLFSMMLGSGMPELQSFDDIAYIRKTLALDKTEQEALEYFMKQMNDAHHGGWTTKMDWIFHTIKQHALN

[5] = target: Phosphatidylinositol 4,5-bisphosphate 3-kinase catalytic subunit gamma isoform (Homo sapiens, UniProt P48736); assay: Inhibition of PI3K-gamma
Phosphatidylinositol 4,5-bisphosphate 3-kinase catalytic subunit gamma isoform, sequence (P48736 whole entry, canonical isoform): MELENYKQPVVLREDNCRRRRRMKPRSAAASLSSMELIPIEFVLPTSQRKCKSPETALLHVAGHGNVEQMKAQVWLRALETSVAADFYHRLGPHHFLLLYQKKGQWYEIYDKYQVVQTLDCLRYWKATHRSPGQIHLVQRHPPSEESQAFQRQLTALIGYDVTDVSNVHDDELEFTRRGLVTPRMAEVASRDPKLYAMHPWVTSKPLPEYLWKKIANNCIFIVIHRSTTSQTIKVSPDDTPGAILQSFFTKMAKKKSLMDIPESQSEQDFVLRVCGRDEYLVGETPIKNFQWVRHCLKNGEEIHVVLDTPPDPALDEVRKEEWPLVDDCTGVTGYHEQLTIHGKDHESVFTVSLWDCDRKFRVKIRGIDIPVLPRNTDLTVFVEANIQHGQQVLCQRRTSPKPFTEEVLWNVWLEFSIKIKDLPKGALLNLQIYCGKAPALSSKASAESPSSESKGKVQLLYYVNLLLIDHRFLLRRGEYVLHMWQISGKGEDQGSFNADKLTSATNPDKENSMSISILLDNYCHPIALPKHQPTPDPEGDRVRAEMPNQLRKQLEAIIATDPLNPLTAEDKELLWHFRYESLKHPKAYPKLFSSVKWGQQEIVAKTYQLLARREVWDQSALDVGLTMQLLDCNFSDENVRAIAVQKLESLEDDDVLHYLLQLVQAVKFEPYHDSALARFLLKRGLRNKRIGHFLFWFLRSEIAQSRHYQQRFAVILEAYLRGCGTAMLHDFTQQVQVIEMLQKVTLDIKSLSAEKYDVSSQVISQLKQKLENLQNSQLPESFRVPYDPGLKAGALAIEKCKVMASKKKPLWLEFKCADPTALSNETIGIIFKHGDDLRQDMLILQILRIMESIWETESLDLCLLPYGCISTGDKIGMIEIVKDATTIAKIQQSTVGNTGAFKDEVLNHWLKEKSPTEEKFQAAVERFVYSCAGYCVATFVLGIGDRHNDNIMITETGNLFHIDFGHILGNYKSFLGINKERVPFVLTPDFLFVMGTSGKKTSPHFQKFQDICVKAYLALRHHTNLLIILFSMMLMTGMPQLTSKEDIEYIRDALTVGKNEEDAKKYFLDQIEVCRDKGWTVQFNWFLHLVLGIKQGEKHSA

[6] = target: Phosphatidylinositol 4,5-bisphosphate 3-kinase catalytic subunit beta isoform (Homo sapiens, UniProt P42338); assay: Inhibition of PI3K-beta
Phosphatidylinositol 4,5-bisphosphate 3-kinase catalytic subunit beta isoform, sequence (P42338 whole entry, canonical isoform): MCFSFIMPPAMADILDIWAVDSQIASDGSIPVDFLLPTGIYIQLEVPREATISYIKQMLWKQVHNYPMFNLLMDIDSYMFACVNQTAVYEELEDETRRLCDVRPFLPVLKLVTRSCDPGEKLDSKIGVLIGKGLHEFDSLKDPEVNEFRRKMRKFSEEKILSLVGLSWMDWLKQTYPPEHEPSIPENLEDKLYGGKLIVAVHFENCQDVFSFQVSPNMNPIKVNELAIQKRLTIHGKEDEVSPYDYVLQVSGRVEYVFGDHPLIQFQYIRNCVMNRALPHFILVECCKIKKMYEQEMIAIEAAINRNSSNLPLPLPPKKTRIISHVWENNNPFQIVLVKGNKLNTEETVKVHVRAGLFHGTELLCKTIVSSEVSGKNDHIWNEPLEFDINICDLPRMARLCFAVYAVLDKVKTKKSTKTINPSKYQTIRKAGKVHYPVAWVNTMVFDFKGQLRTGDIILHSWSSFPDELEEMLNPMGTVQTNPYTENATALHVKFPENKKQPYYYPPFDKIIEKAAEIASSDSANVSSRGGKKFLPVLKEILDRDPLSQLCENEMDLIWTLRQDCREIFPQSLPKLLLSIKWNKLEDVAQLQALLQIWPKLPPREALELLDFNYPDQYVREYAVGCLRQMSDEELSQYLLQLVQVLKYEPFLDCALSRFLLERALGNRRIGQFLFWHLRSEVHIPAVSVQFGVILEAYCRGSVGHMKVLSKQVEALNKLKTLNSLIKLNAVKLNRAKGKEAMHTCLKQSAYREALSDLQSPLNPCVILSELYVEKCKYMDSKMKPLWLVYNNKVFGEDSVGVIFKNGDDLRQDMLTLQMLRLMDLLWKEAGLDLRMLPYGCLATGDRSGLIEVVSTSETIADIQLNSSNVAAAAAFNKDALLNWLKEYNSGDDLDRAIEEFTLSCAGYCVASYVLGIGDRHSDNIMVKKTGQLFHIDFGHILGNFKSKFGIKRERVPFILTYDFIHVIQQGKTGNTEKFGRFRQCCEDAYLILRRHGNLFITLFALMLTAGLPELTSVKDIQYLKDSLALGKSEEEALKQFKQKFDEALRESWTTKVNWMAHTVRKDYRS

[7] = target: T1, Phosphatidylinositol 4,5-bisphosphate 3-kinase catalytic subunit delta isoform (Homo sapiens, UniProt O00329); assay: Inhibition of PI3K-delta
T1 sequence (O00329 whole entry): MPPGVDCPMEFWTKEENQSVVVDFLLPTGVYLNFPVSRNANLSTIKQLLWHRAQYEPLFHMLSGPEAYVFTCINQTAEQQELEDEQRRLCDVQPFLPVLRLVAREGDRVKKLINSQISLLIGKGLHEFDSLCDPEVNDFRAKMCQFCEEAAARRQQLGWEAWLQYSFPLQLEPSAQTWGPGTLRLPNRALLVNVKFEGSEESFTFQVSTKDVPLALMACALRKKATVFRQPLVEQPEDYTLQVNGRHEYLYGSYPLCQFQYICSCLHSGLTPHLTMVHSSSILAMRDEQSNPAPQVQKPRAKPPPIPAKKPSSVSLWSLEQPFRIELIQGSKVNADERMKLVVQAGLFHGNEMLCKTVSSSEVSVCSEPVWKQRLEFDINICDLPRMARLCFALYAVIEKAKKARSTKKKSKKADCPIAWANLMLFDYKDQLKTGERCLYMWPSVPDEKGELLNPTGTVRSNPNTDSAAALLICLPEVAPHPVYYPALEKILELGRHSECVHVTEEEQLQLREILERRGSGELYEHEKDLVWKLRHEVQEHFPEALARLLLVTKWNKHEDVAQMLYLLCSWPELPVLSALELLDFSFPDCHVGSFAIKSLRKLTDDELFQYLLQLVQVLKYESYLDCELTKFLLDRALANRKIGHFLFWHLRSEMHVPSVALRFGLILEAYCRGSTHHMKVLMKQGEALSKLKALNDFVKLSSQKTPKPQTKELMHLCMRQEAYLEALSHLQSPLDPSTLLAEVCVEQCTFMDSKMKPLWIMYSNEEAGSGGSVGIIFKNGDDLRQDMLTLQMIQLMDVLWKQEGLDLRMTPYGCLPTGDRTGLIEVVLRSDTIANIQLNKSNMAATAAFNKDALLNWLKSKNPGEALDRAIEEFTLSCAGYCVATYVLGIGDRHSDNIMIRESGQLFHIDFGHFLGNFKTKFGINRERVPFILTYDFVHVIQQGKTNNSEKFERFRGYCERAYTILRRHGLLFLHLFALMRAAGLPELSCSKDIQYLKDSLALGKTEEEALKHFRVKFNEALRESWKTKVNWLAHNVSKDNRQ

[8] = target: Phosphatidylinositol 4,5-bisphosphate 3-kinase catalytic subunit alpha isoform (Homo sapiens, UniProt P42336, E545K); assay: Inhibition of PI3K-alpha E545K mutant
Phosphatidylinositol 4,5-bisphosphate 3-kinase catalytic subunit alpha isoform (Homo sapiens, UniProt P42336, E545K), sequence (P42336 whole entry E545K, canonical isoform): as the sequence (P42336 whole entry, canonical isoform) above, with E545K counted along it

[9] = Inhibition of PI3K-alpha […] mutant
[10] = system: Mus musculus; assay: In vivo inhibition of PI3K in mouse bearing human MDA-MB-361 cells assessed as inhibition of AKT phosphorylation at 50 mg/kg, po; assay type: functional, organism-based; parameters: dose 50 mg/kg
[11] = system: Mus musculus; assay: In vivo inhibition of mTORC1 in mouse bearing human MDA-MB-361 cells assessed as inhibition of S6K phosphorylation at 50 mg/kg, po; assay type: functional, organism-based; parameters: dose 50 mg/kg
[12] = system: Mus musculus; assay: In vivo inhibition of mTORC1 in mouse bearing human MDA-MB-361 cells assessed as inhibition of S6 phosphorylation at 50 mg/kg, po; assay type: functional, organism-based; parameters: dose 50 mg/kg
[13] = system: MDA-MB-361; assay: Induction of apoptosis in human MDA-MB-361 cells assessed as PARP cleavage after 4 hrs; assay type: functional, cell-based
[14] = system: MDA-MB-361; assay: Antitumor activity against human MDA-MB-361 cells xenografted in mouse assessed as inhibition tumor growth at 10 mg/kg, po qd; assay type: functional, organism-based; parameters: dose 10 mg/kg
[15] = system: Mus musculus; assay: Toxicity in mouse assessed as weight loss at 10 mg/kg, po qd; assay type: organism-based; parameters: dose 10 mg/kg, route oral; settings: in vivo
[16] = target: Cytochrome P450 3A4 (Homo sapiens, UniProt P08684); assay: Inhibition of CYP3A4; assay type: ADME
Cytochrome P450 3A4, sequence (P08684 whole entry): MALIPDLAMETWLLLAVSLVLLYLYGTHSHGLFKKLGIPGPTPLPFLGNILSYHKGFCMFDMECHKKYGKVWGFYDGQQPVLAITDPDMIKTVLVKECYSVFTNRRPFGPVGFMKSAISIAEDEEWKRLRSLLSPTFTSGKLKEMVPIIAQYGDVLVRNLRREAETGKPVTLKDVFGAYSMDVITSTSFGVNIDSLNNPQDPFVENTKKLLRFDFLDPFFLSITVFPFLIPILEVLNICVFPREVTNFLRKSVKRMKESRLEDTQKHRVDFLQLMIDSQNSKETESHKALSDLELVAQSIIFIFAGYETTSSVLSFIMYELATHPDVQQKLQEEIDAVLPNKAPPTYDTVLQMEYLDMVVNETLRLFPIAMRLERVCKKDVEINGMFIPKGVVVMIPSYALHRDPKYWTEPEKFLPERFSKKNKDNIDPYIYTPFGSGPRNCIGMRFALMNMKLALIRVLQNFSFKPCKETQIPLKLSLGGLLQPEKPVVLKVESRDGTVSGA

[17] = target: Cytochrome P450 2D6 (Homo sapiens, UniProt P10635); assay: Inhibition of CYP2D6; assay type: ADME
Cytochrome P450 2D6, sequence (P10635 whole entry): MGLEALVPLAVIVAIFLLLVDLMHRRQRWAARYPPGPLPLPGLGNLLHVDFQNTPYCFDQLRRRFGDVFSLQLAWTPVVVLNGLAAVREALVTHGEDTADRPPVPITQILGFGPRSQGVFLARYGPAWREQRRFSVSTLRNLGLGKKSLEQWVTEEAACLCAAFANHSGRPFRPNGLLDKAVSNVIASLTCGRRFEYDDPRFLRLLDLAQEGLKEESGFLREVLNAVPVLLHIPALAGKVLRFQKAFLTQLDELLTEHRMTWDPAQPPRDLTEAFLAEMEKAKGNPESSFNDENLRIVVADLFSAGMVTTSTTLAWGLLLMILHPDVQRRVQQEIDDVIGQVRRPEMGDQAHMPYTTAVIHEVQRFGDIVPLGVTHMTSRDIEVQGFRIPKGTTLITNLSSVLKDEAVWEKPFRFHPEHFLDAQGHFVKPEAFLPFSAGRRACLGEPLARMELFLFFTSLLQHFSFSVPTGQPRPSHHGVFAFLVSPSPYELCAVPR

[18] = target: T2, Cytochrome P450 2C8 (Homo sapiens, UniProt P10632); assay: Inhibition of CYP2C8; assay type: ADME
T2 sequence (P10632 whole entry): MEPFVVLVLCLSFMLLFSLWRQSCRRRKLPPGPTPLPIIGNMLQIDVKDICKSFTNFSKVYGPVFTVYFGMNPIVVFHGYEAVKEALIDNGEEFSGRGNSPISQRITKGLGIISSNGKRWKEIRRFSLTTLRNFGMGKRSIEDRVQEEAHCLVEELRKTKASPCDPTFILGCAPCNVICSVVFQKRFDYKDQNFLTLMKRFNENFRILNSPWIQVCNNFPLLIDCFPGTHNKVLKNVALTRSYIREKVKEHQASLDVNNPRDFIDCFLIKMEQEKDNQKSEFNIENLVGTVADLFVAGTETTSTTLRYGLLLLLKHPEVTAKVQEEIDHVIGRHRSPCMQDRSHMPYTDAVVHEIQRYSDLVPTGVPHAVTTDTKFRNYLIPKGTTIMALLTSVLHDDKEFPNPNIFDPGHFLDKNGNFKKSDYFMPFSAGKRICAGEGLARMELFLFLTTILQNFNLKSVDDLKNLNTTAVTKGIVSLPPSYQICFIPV

[19] = target: Cytochrome P450 2C19 (Homo sapiens, UniProt P33261); assay: Inhibition of CYP2C19; assay type: ADME
Cytochrome P450 2C19, sequence (P33261 whole entry): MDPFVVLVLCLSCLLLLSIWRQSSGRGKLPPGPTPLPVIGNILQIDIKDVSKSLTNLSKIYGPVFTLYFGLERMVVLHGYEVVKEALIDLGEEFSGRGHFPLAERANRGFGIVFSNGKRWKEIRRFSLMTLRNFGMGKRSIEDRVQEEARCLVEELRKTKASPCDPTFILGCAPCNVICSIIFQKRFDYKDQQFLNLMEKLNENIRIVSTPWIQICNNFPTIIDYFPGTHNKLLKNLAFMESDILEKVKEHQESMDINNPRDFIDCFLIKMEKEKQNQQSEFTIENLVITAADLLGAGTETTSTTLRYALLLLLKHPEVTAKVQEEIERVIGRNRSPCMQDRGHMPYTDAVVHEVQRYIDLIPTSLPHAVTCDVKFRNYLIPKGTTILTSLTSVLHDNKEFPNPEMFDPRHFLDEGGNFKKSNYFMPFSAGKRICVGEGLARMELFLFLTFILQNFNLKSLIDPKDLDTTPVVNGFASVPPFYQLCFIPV

[20] = target: T3, Cytochrome P450 2A6 (Homo sapiens, UniProt P11509); assay: Inhibition of CYP2A6; assay type: ADME
T3 sequence (P11509 whole entry): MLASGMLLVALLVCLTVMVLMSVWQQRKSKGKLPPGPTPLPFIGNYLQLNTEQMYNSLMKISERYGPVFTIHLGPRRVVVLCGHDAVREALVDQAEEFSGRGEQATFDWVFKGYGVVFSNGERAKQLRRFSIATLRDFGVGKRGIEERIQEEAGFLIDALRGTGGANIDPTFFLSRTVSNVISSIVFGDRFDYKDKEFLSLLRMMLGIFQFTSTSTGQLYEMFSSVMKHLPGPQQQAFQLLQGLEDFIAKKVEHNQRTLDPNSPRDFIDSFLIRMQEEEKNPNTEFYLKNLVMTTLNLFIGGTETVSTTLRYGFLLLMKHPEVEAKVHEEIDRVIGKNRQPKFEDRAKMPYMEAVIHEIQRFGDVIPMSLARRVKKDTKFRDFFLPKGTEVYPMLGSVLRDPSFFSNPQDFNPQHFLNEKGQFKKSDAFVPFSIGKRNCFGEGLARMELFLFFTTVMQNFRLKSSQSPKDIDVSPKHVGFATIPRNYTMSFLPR

[21] = target: T4, Cytochrome P450 2B6 (Homo sapiens, UniProt P20813); assay: Inhibition of CYP2B6; assay type: ADME
T4 sequence (P20813 whole entry): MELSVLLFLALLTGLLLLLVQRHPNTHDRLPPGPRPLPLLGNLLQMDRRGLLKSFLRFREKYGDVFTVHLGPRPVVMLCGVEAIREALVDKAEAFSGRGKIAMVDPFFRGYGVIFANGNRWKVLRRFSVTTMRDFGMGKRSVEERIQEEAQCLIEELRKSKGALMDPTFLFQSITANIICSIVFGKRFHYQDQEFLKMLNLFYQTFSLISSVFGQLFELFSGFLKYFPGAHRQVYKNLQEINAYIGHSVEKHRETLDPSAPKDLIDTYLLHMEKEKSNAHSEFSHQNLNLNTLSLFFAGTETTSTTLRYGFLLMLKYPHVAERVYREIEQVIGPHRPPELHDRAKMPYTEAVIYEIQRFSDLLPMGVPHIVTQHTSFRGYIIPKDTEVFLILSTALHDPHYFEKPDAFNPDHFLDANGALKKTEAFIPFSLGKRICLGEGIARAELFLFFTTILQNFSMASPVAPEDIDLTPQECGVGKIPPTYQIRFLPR

[22] = target: T5, Cytochrome P450 1A2 (Homo sapiens, UniProt P05177); assay: Inhibition of CYP1A2; assay type: ADME
T5 sequence (P05177 whole entry): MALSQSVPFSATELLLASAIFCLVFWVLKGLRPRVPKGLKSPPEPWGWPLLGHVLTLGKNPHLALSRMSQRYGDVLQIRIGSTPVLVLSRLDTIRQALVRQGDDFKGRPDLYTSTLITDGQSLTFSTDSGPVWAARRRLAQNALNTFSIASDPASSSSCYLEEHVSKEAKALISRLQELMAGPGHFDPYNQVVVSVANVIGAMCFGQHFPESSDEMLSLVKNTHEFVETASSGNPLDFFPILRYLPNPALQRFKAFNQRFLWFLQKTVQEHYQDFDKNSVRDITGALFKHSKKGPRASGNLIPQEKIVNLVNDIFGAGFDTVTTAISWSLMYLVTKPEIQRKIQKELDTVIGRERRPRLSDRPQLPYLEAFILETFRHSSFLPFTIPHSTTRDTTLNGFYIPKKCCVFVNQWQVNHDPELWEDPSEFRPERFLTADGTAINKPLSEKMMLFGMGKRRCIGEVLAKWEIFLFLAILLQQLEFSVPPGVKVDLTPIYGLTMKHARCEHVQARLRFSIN

Structure (SMILES) | IC50 [1] | IC50 [2] | IC50 [3] | IC50 [4] | IC50 [5] | also measured
O=C(Nc1ccc(-c2nc(N3CCOCC3)nc(N3C4CCC3COC4)n2)cc1)Nc1cccnc1 | 73 nM | 98 nM |  |  |  | 
N#Cc1ccc(NC(=O)Nc2ccc(-c3nc(N4CCOCC4)nc(N4C5CCC4COC5)n3)cc2)cc1 | 345 nM | 3600 nM | 3.3 nM |  |  | 
CN(C)c1ccc(NC(=O)Nc2ccc(-c3nc(N4CCOCC4)nc(N4C5CCC4COC5)n3)cc2)cc1 | > 1000 nM | > 1000 nM | 13.5 nM | 3.5 nM | 717 nM | 
CN1CCN(c2ccc(NC(=O)Nc3ccc(-c4nc(N5CCOCC5)nc(N5C6CCC5COC6)n4)cc3)cc2)CC1 | 35 nM | 40 nM | 1.1 nM |  |  | 
O=C(Nc1ccc(-c2nc(N3CCOCC3)nc(N3C4CCC3COC4)n2)cc1)Nc1ccnc(Cl)c1 | 93 nM | 118 nM |  | 23 nM |  | 
O=C(Nc1ccc(-c2nc(N3CCOCC3)nc(N3C4CCC3COC4)n2)cc1)Nc1ccc(-c2cccnc2)nc1 | 56 nM | 45 nM | 3.45 nM | 40 nM | 44 nM | 
O=C(Nc1ccncc1)Nc1ccc(-c2nc(N3CCOCC3)nc(N3C4COCC3[C@@H](O)C4)n2)cc1 (stereo partly drawn) | 32 nM | 80 nM | 0.8 nM | 4 nM | 33 nM | 
Cc1ccc(NC(=O)Nc2ccc(-c3nc(N4CCOCC4)nc(N4C5CCC4COC5)n3)cc2)cc1 | 167 nM | 301 nM |  |  |  | 
COc1ccc(NC(=O)Nc2ccc(-c3nc(N4CCOCC4)nc(N4C5CCC4COC5)n3)cc2)cc1OC | 402 nM | 1250 nM | 93.5 nM | 13.5 nM | 358 nM | 
O=C(Nc1ccc(-c2nc(N3CCOCC3)nc(N3C4CCC3COC4)n2)cc1)Nc1ccnnc1 | 36 nM | 47 nM |  | 28 nM |  | 
O=C(Nc1ccc(-c2nc(N3CCOCC3)nc(N3C4CCC3COC4)n2)cc1)Nc1cncnc1 | 110 nM | 138 nM |  | 84 nM | 240 nM | 
CN1CCN(Cc2ccc(NC(=O)Nc3ccc(-c4nc(N5CCOCC5)nc(N5C6CCC5COC6)n4)cc3)cc2)CC1 | 14 nM | 31 nM |  |  |  | 
O=C(Nc1ccc(F)cc1)Nc1ccc(-c2nc(N3CCOCC3)nc(N3C4CCC3COC4)n2)cc1 | 98 nM | 176 nM | 1.9 nM |  |  | 
O=C(Nc1ccc(CCO)cc1)Nc1ccc(-c2nc(N3CCOCC3)nc(N3C4CCC3COC4)n2)cc1 | 22 nM | 30 nM |  |  |  | 
O=C(Nc1ccc(CO)cc1)Nc1ccc(-c2nc(N3CCOCC3)nc(N3C4CCC3COC4)n2)cc1 | 15 nM | 28 nM |  |  |  | 
O=C(Nc1ccccc1)Nc1ccc(-c2nc(N3CCOCC3)nc(N3C4CCC3COC4)n2)cc1 | 104 nM | 147 nM | 2 nM | 18 nM | 51 nM | 
CN(C)CCOc1ccc(NC(=O)Nc2ccc(-c3nc(N4CCOCC4)nc(N4C5CCC4COC5)n3)cc2)cc1 | < 30 nM | < 30 nM |  | 14 nM |  | 
O=C(Nc1ccncc1)Nc1ccc(-c2nc(N3CCOCC3)nc(N3C4CCC3COC4)n2)cc1 [PKI-179] | 22 nM | 29 nM | 0.42 nM |  | 74 nM | IC50 [6]: 24 nM; IC50 [7]: 77 nM; IC50 [8]: 14 nM; IC50 [9]: 11 nM; inhibition [10]: Active; inhibition [11]: Active; inhibition [12]: Active; Activity [13]: Active; inhibition [14]: Active; Activity [15]: Non-toxic; IC50 [16]: > 30000 nM; IC50 [17]: > 30000 nM; IC50 [18]: 3000 nM; IC50 [19]: > 30000 nM; IC50 [20]: > 30000 nM; IC50 [21]: > 30000 nM; IC50 [22]: > 30000 nM
